# Experimental data as given in patent US6620839B2, “1,3-disubstituted and 1,3,3-trisubstituted pyrrolidines as histamine-3 receptor ligands and their therapeutic applications” (Abbott Laboratories, priority 2000, dated 2003).
# Biological target: T1, histamine-3 receptor (Rattus norvegicus, UniProt Q9QYN8)
# T1 construct: from tissue; host or cells: male Sprague-Dawley rat brain cortex membranes
# Test: Histamine-3 receptor binding, (3H)-N-α-methylhistamine displacement in rat cortical membranes
# Details: male Sprague-Dawley rat brain cortical membranes; (3H)-N-α-methylhistamine ~0.6 nM; 30 minutes at 25° C.; Cheng-Prusoff
# Method: Briefly, male Sprague-Dawley rat brain cortices were homogenized (1 g tissue/10 mL buffer) in 50 mM Tris-HCl/5 mM EDTA containing protease inhibitor cocktail (Calbiochem) using a polytron set at 20,500 rpm. Homogenates were centrifuged for 20 minutes at 40,000×g. The supernatant was decanted, and pellets were weighed. The pellet was resuspended by polytron homogenization in 40 mL 50 mM Tris-HCl/5 mM EDTA with protease inhibitors and centrifuged for 20 minutes at 40,000×g. […] Test compounds were dissolved in DMSO to provide 20 mM solution, serially diluted and then added to the incubation mixtures prior to initiating the incubation assay by addition of the membranes. Thioperamide (3 μM) was used to determine nonspecific binding. Binding incubations were conducted for 30 minutes at 25° C. and terminated by addition of 2 mL of ice cold 50 mM Tris-HCl (pH 7.7) and filtration through 0.3% polyethylenimine-soaked Unifilter plates (Packard). These filters were washed 4 additional times with 2 mL of ice-cold 50 mM Tris-HCl and dried for 1 hour. Radioactivity was determined using liquid scintillation counting techniques. Results were analyzed by Hill transformation and Ki values were determined using the Cheng-Prusoff equation.
# T1 sequence (Q9QYN8 whole entry): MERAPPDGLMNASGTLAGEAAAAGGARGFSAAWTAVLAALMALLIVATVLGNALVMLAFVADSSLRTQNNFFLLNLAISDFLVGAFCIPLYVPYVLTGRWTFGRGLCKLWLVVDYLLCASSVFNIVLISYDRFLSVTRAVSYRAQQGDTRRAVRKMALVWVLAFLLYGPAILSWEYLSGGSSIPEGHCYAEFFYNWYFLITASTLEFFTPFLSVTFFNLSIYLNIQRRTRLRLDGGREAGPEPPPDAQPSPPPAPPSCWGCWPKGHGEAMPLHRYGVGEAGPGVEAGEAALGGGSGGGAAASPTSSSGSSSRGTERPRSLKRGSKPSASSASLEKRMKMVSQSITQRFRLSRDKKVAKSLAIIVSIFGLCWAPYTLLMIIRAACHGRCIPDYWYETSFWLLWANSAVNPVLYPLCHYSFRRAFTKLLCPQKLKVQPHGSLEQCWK
row,Compound,Ki [nM]
1,N#Cc1ccc(-c2ccc(OCCCN3CC[C@@H](NS(=O)(=O)c4cccs4)C3)cc2)cc1 [Example 36],12
2,"Cc1ccc(S(=O)(=O)N[C@@H]2CCN(CCCOc3ccc(C(=O)C4CC4)cc3)C2)cc1Cl [Example 87, 3-chloro-N-((3R)-1-{3-[4-(cyclopropylcarbonyl)phenoxy]propyl}pyrrolidinyl)-4-methylbenzenesulfonamide]",4.9
3,"O=C(c1ccc(OCCCN2CC[C@@H](NS(=O)(=O)c3ccc(F)cc3)C2)cc1)C1CC1 [Example 57, N-((3R)-1-{3-[4-(cyclopropylcarbonyl)phenoxy]propyl}pyrrolidinyl)-4-fluorobenzenesulfonamide]",3.6
4,"CC(=O)c1ccc(OCCCN2CC[C@@H](NS(=O)(=O)c3cccn3-c3ncc(C(F)(F)F)cc3Cl)C2)cc1 [Example 78, N-{(3R)-1-[3-(4-acetylphenoxy)propyl]pyrrolidinyl}-1-[3-chloro-5-(trifluoromethyl)-2-pyridinyl]-1H-pyrrole-2-sulfonamide]",8.7
5,"N#Cc1ccc(-c2ccc(OCCCN3CC[C@@H](NS(=O)(=O)c4cc(Cl)cc(Cl)c4)C3)cc2)cc1 [Example 32, 3,5-dichloro-N-((3R)-1-{3-[(4′-cyano[1,1′-biphenyl]-4-yl)oxy]propyl}pyrrolidinyl)benzenesulfonamide]",99
6,"N#Cc1ccc(-c2ccc(OCCCN3CC[C@@H](NS(=O)(=O)c4ccc(Br)cc4)C3)cc2)cc1 [Example 16, 4-bromo-N-((3R)-1-{3-[(4′-cyano[1,1′-biphenyl]-4-yl)oxy]propyl}pyrrolidinyl)benzenesulfonamide]",67
7,"O=C(c1ccc(OCCCN2CC[C@@H](NS(=O)(=O)c3ccc(Cl)cc3)C2)cc1)C1CC1 [Example 58, 4-chloro-N-((3R)-1-{3-[4-(cyclopropylcarbonyl)phenoxy]propyl}pyrrolidinyl)benzenesulfonamide]",3.9
8,"CC(=O)c1ccc(OCCCN2CC[C@@H](NS(=O)(=O)c3ccc(Cl)c(Cl)c3)C2)cc1 [Example 77, N-{(3R)-1-[3-(4-acetylphenoxy)propyl]pyrrolidinyl}-3,4-dichlorobenzenesulfonamide]",5.3
9,N-((3R)-1-{3-[4-(cyclopropylcarbonyl)phenoxy]propyl}pyrrolidinyl)-4-isopropylbenzenesulfonamide [Example 67],2.9
10,"CC(=O)c1ccc(OCCCN2CC[C@@H](NC(=O)C3CC3)C2)cc1 [Example 1, N-{(3R)-1-[3-(4-acetylphenoxy)propyl]pyrrolidinyl}cyclopropanecarboxamide]",105
11,"CC(=O)c1ccc(OCCCN2CC[C@@H](NS(=O)(=O)c3cccc4cnccc34)C2)cc1 [Example 75, N-{(3R)-1-[3-(4-acetylphenoxy)propyl]pyrrolidinyl}-5-isoquinolinesulfonamide]",19
12,N#Cc1ccc(-c2ccc(OCCCN3CC[C@@H](NS(=O)(=O)C=Cc4ccccc4)C3)cc2)cc1 [Example 44],52
13,"O=C(c1ccc(OCCCN2CC[C@@H](NS(=O)(=O)c3cccc(Cl)c3)C2)cc1)C1CC1 [Example 70, 3-chloro-N-((3R)-1-{3-[4-(cyclopropylcarbonyl)phenoxy]propyl}pyrrolidinyl)benzenesulfonamide]",3
14,COc1ccc(OC)c(S(=O)(=O)N[C@@H]2CCN(CCCOc3ccc(-c4ccc(C#N)cc4)cc3)C2)c1 [Example 24],43
15,"CC(=O)c1ccc(OCCCN2CC[C@@H](NS(=O)(=O)c3cccc(F)c3)C2)cc1 [Example 72, N-{(3R)-1-[3-(4-acetylphenoxy)propyl]pyrrolidinyl}-3-fluorobenzenesulfonamide]",7.9
16,"CCc1ccc(S(=O)(=O)N[C@@H]2CCN(CCCOc3ccc(C(=O)C4CC4)cc3)C2)cc1 [Example 66, N-((3R)-1-{3-[4-(cyclopropylcarbonyl)phenoxy]propyl}pyrrolidinyl)-4-ethylbenzenesulfonamide]",4.6
17,"Cc1c(S(=O)(=O)N[C@@H]2CCN(CCCOc3ccc(C(=O)C4CC4)cc3)C2)sc2ccc(Cl)cc12 [Example 82, 5-chloro-N-((3R)-1-{3-[4-(cyclopropylcarbonyl)phenoxy]propyl}pyrrolidinyl)-3-methyl-1-benzothiophene-2-sulfonamide]",21
18,"Cc1ccc(S(=O)(=O)N[C@@H]2CCN(CCCOc3ccc(-c4ccc(C#N)cc4)cc3)C2)cc1Cl [Example 43, 3-chloro-N-((3R)-1-{3-[(4′-cyano[1,1′-biphenyl]-4-yl)oxy]propyl}pyrrolidinyl)-4-methylbenzenesulfonamide]",37
19,N#Cc1ccc(-c2ccc(OCCCN3CC[C@@H](NS(=O)(=O)c4ccc(F)cc4)C3)cc2)cc1 [Example 17],13
20,"O=C(c1ccc(OCCCN2CC[C@@H](NS(=O)(=O)c3ccc(Cl)c(Cl)c3)C2)cc1)C1CC1 [Example 97, 3,4-dichloro-N-((3R)-1-{3-[4-(cyclopropylcarbonyl)phenoxy]propyl}pyrrolidinyl)benzenesulfonamide]",6.7
21,"CC(=O)c1ccc(OCCCN2CC[C@@H](NS(=O)(=O)c3ccc(C#N)cc3)C2)cc1 [Example 5, N-{(3R)-1-[3-(4-acetylphenoxy)propyl]pyrrolidinyl}-4-cyanobenzenesulfonamide]",6.3
22,"N#Cc1ccc(-c2ccc(OCCCN3CC[C@@H](NS(=O)(=O)c4cccc(C#N)c4)C3)cc2)cc1 [Example 34, 3-cyano-N-((3R)-1-{3-[(4′-cyano[1,1′-biphenyl]-4-yl)oxy]propyl}pyrrolidinyl)benzenesulfonamide]",11
23,"CC(=O)Nc1ccc(S(=O)(=O)N[C@@H]2CCN(CCCOc3ccc(-c4ccc(C#N)cc4)cc3)C2)cc1 [Example 19, N-(4-{[((3R)-1-{3-[(4′-cyano[1,1′-biphenyl]-4-yl)oxy]propyl}pyrrolidinyl)amino]sulfonyl}phenyl)acetamide]",3.8

# Second part, the compound after the results:
row,Ki [nM],Compound
1,73,"CN(C)[C@@H]1CCN(CCCOc2ccc(-c3ccc(C#N)c(F)c3)cc2)C1 [Example 166, 4′-{3-[(3R)-3-(dimethylamino)-1-pyrrolidinyl}propoxy]-3-fluoro-1,1′-biphenyl-4-carbonitrile]"
2,3,CS(=O)(=O)c1ccc(S(=O)(=O)N[C@@H]2CCN(CCCOc3ccc(-c4ccc(C#N)cc4)cc3)C2)cc1 [Example 146]
3,200,CC(=O)Nc1ccc(S(=O)(=O)N[C@@H]2CCN(CCCOc3ccc(-c4ccccn4)cc3)C2)cc1Cl [Example 107]
4,13,CN(C(=O)CC(C)(C)C)[C@@H]1CCN(CCCOc2ccc(-c3ccc(C#N)cc3)cc2)C1 [Example 112]
5,16,"CC(C)c1ccc(S(=O)(=O)N(C)[C@@H]2CCN(CCCOc3ccc(-c4ccc(C#N)cc4)cc3)C2)cc1 [Example 127, N-((3R)-1-{3-[(4′-cyano[1,1′-biphenyl]-4-yl)oxy]propyl}pyrrolidinyl)-4-isoproply-N-methylbenzensulfonamide]"
6,342,N#Cc1ccc(-c2ccc(OCCCN3CC[C@@H](NC(=O)c4cccnc4)C3)cc2)cc1 [Example 141]
7,168,"COc1ccc(S(=O)(=O)N[C@@H]2CCN(CCCOc3ccc(-c4ccccn4)cc3)C2)cc1OC [Example 106, 3,4-dimethoxy-N-((3R)-1-{3-[4-(2-pyridinyl)phenoxy]propyl}pyrrolidinyl)benzenesulfonamide]"
8,5.7,CN(C(=O)N1CCOCC1)[C@@H]1CCN(CCCOc2ccc(-c3ccc(C#N)cc3)cc2)C1 [Example 118]
9,2.3,CN([C@@H]1CCN(CCCOc2ccc(-c3ccc(C#N)cc3)cc2)C1)S(=O)(=O)c1ccc(S(C)(=O)=O)cc1 [Example 128]
10,21,"CN(C)C(=O)N(C)[C@@H]1CCN(CCCOc2ccc(-c3ccc(C#N)cc3)cc2)C1 [Example 115, N-((3R)-1-{3-[(4′-cyano[1,1′-biphenyl]-4-yl)oxy]propyl}pyrrolidinyl)-N,N,′N′-trimethylurea]"
11,209,CC(C)(C)CC(=O)N(C(=O)CC(C)(C)C)[C@@H]1CCN(CCCOc2ccc(-c3ccc(C#N)cc3)cc2)C1 [Example 147]
12,195,"N#Cc1ccc(S(=O)(=O)N[C@@H]2CCN(CCCOc3ccc(-c4ccccn4)cc3)C2)cc1 [Example 103, 4-cyano-N-((3R)-1-{3-[4-(2-pyridinyl)phenoxy]propyl}pyrrolidinyl)benzenesulfonamide]"
13,321,N#Cc1ccc(-c2ccc(OCCCN3CC[C@@H](NC(=O)c4ccco4)C3)cc2)cc1 [Example 142]
14,13,"COC(=O)N(C)[C@@H]1CCN(CCCOc2ccc(-c3ccc(C#N)cc3)cc2)C1 [Example 113, methyl (3R)-1-{3-[(4′-cyano[1,1′-biphenyl]-4-yl)oxy]propyl}pyrrolidinyl(methyl)carbamate]"
15,179,"COc1ccc(S(=O)(=O)N[C@@H]2CCN(CCCOc3ccc(-c4ccccn4)cc3)C2)cc1 [Example 101, 4-methoxy-N-((3R)-1-{3-[4-(2-pyridinyl)phenoxy]propyl}pyrrolidinyl)benzenesulfonamide]"
16,291,CN(C)C(=O)N(C(=O)N(C)C)[C@@H]1CCN(CCCOc2ccc(-c3ccc(C#N)cc3)cc2)C1 [Example 148]
17,14,"CN(C)[C@@H]1CCN(CCCOc2c(F)cc(-c3ccc(C#N)cc3)cc2Cl)C1 [Example 174, 3′-chloro-4′-{3-[(3R)-3-(dimethylamino)-1-pyrrolidinyl]propoxy}-5′-fluoro-1,1′-biphenyl-4-carbonitrile]"
